Assays:
PLpro of SARS-CoV-2 [1] = biological target: T1, PLpro of SARS-CoV-2 (Severe acute respiratory syndrome coronavirus 2, UniProt P0DTD1); experiment: Enzyme activity test in vitro: inhibition of PLpro at fixed concentration 50 μM (RLRGG-AMC substrate); type: biochemical; conditions: compound 50 μM, 10 min preincubation at 37° C., Table 1; read-out: Inhibition rate at 50 μM (%)
PLpro of SARS-CoV-2 [2] = biological target: T1, PLpro of SARS-CoV-2; experiment: IC50 determination of inhibition of PLpro activity (RLRGG-AMC substrate); type: biochemical; conditions: 13 concentrations 100 μM to 0.0244 μM, GraphPad Prism

SMILES | inhibition at 50 µM (PLpro of SARS-CoV-2 [1]) [%] | IC50 (PLpro of SARS-CoV-2 [2]) [µM]
COc1ccc(-c2nc3cnccn3c2Nc2ccc(C(=O)NC3CCCCC3)cc2)cc1 [P22414, N-cyclohexyl-4-[[2-(4-methoxyphenyl)imidazo[1,2-a]pyrazin-3-yl]amino]benzamide] | 51.1 | 45.9
Cc1ccc(-c2nc3cnccn3c2Nc2ccc(C(=O)N3CCOCC3)cc2)cc1 [P22415, [4-[[2-(4-methyl-phenyl)imidazo[1,2-a]pyrazin-3-yl]amino]phenyl]-morpholin-4-ylmethanone] | 63.3 | 49.7
Cc1ccc(-c2nc3cnccn3c2Nc2ccc(C(=O)NCCN3CCOCC3)cc2)cc1 [P22423, 4-[[2-(4-methylphenyl)imidazo[1,2-a]pyrazin-3-yl]amino]-N-(2-morpholin-4-ylethyl)benzamide] | 54.5 | 33.5
O=C(NC1CCCCC1)c1cccc(Nc2c(-c3ccc(Cl)cc3)nc3cnccn23)c1 [P22438, 3-[[2-(4-chlorophenyl)imidazo[1,2-a]pyrazin-3-yl]amino]-N-cyclohexyl-benzamide] | 54.2 | 40.8
COc1ccc(-c2nc3cnccn3c2Nc2ccc(C(=O)NCc3ccco3)cc2)cc1 [P22445, N-(furan-2-ylmethyl)-4-[[2-(4-methoxy-phenyl)imidazo[1,2-a]pyrazin-3-yl]amino]benzamide] | 62.3 | 13.9
CCNC(=O)c1ccc(Nc2c(-c3ccc(OC)cc3)nc3cnccn23)cc1 [P22471, Nethyl-4-[[2-(4-methoxyphenyl)imidazo[1,2-a]pyrazin-3-yl]amino]benzamide] | 52.8 | 35.1
COc1ccc(-c2nc3cnccn3c2Nc2cccc(C(N)=O)c2)cc1 [P22475, 3-[[2-(4-methoxy-phenyl)imidazo[1,2-a]pyrazin-3-yl]amino] benzamide] | 60.1 | 16.6
CSc1ccc(-c2nc3cnccn3c2Nc2cccc(C(=O)NCc3ccco3)c2)cc1 [P22479] | 58.8 | 35.4

Source: patent US20250032485A1, “APPLICATION OF IMIDAZO [1,2-A] PYRAZINE COMPOUNDS OR THEIR PHARMACEUTICALLY ACCEPTABLE SALTS IN THE PREPARATION OF ANTI-CORONAVIRUS DRUGS” (GUANGZHOU MEDICAL UNIVERSITY, priority 2023, published 2025)
